Test results published in ChEMBL document CHEMBL1201862, “PubChem BioAssay data set” (2004).
Calls of active or inactive are those of the source.

Legend:
[1] = target: T1, Voltage-gated N-type calcium channel alpha-1B subunit/Amyloid beta A4 precursor protein-binding family A member 1 (Homo sapiens, UniProt Q00975+Q02410); type: protein assay
[2] = target: T1, Voltage-gated N-type calcium channel alpha-1B subunit/Amyloid beta A4 precursor protein-binding family A member 1; type: protein assay; remark: listed apart in the source
[3] = target: T2, Bifunctional protein GlmU (Mycobacterium tuberculosis, UniProt P9WMN3); assay: Inhibitors of Mycobacterial Glucosamine-1-phosphate acetyl transferase (GlmU). Secondary screen.; design: species or system Mycobacterium tuberculosis H37Rv
T2 sequence (P9WMN3 whole entry): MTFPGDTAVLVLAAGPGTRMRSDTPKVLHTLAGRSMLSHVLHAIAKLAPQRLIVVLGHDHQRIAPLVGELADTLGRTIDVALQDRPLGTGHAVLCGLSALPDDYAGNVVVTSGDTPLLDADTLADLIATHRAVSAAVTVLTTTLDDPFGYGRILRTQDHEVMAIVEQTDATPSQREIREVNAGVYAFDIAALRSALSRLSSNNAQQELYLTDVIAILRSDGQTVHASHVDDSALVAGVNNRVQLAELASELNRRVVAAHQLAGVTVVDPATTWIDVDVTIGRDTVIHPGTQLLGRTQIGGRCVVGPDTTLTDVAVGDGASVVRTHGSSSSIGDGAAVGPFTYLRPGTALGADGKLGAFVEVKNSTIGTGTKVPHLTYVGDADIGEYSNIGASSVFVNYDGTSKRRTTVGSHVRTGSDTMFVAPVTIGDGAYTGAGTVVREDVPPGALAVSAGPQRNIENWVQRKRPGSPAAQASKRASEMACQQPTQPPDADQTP

Troponin, cardiac muscle = Troponin, cardiac muscle (Homo sapiens, UniProt P19429+P45379+P63316); assay: inhibitors of cardiac thin filament calcium sensitivity, dose response, biochemical, fluorescence, cardiac regulated thin filaments, triplicate IC50 (AID 504742); type: protein-complex assay
[4] = target: Intestinal-type alkaline phosphatase (Mus musculus, UniProt P24822); assay: PubChem AID 488785; type: functional
Intestinal-type alkaline phosphatase, sequence (P24822 whole entry): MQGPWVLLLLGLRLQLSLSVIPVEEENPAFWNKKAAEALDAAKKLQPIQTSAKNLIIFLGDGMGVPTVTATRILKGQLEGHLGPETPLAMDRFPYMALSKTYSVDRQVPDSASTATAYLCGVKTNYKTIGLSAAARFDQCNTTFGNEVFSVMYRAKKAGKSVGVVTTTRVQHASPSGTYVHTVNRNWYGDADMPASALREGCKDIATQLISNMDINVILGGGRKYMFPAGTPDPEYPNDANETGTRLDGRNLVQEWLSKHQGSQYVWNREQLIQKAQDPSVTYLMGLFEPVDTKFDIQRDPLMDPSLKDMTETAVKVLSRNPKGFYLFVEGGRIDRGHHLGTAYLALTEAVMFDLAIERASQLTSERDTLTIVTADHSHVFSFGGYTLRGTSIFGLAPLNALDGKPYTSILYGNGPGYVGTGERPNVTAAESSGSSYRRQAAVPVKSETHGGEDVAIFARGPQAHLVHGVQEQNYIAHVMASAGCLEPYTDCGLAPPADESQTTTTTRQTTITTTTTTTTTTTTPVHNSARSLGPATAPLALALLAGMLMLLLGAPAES

[5] = target: T3, Alkaline phosphatase, tissue-nonspecific isozyme (Homo sapiens, UniProt P05186); assay: TNAP enzyme inhibition by screening hits, dose response, selectivity assay for mouse IAP inhibitor project, biochemical, human TNAP, uHTS hits (AID 488906); type: functional
T3 sequence (P05186 whole entry): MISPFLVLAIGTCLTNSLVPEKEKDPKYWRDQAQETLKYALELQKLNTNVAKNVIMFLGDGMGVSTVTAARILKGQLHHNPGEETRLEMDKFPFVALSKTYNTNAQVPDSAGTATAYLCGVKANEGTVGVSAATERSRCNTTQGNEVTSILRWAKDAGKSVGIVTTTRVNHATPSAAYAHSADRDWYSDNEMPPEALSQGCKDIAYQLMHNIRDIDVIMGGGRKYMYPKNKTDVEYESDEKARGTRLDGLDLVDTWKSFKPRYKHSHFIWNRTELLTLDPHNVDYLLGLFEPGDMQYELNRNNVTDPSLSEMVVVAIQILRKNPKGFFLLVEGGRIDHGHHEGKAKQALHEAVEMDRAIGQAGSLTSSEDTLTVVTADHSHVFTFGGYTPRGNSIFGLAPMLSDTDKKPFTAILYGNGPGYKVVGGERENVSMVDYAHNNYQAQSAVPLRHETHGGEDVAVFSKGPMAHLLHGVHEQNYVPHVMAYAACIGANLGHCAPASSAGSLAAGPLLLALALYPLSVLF

[6] = target: Polyadenylate-binding protein 1 (Homo sapiens, UniProt P11940); assay: PABP1 MLLE–PAM2 interaction inhibitors, dose response, miRNA deadenylation inhibitor project, biochemical, fluorescence polarization, Cy5-PAM2 peptide, secondary (AID 602260); type: functional; conditions: read-out: IC50_Mean
Polyadenylate-binding protein 1, sequence (P11940 whole entry): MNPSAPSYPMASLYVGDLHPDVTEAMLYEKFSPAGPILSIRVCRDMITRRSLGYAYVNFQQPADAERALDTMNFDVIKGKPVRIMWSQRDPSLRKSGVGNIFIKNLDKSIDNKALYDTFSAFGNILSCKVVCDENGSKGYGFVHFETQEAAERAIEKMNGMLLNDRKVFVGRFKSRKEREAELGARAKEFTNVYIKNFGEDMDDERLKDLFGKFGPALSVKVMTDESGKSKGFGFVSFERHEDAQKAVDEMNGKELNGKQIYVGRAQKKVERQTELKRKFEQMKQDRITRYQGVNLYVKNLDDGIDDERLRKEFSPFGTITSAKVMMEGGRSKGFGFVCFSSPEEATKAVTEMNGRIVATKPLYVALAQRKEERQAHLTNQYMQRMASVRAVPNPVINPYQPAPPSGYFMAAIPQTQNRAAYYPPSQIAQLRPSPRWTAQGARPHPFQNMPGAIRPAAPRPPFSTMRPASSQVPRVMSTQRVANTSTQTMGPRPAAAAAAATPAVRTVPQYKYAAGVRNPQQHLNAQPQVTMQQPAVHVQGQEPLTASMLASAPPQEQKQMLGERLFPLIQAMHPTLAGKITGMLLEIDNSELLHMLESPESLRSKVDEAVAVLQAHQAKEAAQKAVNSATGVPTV

[7] = target: Histone-lysine N-methyltransferase NSD2 (Homo sapiens, UniProt O96028); type: biochemical
[8] = HepG2 cell cytotoxicity, dose response, cytotoxicity control, plate reader, cherry-pick, antagonist series (AID 743416); type: functional, cell-based

T1 sequence (Q00975 whole entry): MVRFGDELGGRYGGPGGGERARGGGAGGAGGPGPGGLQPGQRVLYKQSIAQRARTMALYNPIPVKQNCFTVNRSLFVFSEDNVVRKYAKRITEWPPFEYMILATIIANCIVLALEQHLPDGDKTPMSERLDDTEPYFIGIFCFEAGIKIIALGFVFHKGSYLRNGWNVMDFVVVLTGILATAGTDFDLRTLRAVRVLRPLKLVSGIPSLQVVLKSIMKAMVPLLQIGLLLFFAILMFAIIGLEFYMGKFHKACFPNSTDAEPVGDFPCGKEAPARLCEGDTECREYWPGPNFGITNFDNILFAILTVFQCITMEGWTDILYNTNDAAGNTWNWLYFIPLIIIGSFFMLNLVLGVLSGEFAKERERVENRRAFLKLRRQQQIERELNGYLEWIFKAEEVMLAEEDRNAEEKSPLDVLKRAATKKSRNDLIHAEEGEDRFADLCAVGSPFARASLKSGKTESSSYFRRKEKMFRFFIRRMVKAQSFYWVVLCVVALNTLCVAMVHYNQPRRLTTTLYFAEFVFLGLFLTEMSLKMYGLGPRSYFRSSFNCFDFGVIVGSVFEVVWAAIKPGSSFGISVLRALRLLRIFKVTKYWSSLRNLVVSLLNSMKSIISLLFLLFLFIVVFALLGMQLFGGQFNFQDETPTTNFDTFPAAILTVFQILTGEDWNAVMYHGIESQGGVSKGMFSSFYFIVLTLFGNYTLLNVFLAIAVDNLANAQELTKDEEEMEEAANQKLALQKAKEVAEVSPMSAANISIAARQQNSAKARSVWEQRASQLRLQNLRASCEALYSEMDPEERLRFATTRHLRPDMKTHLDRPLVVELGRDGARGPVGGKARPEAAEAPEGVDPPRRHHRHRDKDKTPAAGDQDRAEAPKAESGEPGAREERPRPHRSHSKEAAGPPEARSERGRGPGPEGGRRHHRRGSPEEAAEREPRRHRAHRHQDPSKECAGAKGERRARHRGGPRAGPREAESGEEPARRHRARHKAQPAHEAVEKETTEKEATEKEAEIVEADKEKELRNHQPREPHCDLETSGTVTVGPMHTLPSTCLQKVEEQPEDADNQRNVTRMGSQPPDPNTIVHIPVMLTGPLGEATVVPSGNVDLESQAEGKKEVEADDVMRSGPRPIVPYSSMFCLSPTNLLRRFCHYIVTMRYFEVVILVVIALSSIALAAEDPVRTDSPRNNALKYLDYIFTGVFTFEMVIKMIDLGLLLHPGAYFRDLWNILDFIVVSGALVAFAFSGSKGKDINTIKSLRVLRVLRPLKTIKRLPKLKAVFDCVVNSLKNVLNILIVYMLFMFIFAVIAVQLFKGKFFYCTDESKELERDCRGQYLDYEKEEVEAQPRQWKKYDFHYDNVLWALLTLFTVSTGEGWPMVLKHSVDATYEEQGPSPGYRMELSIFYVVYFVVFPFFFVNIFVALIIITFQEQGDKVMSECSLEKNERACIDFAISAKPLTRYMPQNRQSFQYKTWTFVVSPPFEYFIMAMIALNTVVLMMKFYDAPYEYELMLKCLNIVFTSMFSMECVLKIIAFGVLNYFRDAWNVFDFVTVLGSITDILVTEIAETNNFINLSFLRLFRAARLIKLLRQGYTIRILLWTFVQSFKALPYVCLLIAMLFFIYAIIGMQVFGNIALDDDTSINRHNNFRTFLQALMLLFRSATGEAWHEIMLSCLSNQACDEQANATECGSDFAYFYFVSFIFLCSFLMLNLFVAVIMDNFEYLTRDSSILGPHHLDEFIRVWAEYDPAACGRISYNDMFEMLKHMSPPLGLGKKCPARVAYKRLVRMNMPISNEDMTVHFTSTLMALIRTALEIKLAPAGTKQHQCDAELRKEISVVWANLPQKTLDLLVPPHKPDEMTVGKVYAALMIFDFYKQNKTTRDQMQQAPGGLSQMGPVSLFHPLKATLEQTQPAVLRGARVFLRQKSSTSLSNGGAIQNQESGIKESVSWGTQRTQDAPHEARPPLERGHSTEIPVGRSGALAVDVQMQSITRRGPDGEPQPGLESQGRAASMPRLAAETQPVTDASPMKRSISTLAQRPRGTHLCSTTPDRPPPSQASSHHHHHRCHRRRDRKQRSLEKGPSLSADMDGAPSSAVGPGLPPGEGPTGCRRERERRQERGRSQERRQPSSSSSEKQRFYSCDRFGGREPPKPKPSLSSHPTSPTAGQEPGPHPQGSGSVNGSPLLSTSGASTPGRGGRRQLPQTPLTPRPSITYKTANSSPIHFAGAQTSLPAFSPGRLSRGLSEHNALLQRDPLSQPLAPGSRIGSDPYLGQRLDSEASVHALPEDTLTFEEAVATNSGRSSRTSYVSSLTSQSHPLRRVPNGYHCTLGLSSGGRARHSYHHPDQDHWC
T1 sequence (Q02410 whole entry): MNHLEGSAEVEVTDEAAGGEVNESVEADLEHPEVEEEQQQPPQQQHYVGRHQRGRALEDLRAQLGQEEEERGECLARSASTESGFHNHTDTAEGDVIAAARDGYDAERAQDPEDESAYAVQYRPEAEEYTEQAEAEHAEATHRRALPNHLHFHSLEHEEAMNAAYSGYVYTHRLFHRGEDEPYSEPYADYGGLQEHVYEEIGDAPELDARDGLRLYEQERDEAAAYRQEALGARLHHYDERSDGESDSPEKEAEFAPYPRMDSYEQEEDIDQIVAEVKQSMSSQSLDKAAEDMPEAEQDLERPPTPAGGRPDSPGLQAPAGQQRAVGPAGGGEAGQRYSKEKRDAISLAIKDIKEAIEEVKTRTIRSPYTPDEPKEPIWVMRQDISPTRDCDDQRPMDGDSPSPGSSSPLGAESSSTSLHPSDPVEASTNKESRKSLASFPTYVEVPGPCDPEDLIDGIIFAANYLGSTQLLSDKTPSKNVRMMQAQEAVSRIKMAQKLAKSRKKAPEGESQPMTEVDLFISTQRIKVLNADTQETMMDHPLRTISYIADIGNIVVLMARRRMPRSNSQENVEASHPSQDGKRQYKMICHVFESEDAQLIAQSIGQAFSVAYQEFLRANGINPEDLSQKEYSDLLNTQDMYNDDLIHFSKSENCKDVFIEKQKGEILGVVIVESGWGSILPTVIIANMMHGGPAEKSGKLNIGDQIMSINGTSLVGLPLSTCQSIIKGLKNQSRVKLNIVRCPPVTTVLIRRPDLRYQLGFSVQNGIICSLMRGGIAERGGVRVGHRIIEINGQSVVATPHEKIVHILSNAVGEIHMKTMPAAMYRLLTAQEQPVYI

With `O=C(O)c1cc(N2N=C(C(F)(F)F)/C(=C/C=C/c3ccco3)C2=O)ccc1Cl` the IC50 [1] was 24.6 µM (active), the IC50 [2] was 11.7 µM (active) and the IC50 [3] was 94.3 µM (active). For the same compound, the IC50 (Troponin, cardiac muscle) was > 2.65 µM (active).
In the case of `O=C(/C=C/c1ccco1)NC(=S)Nc1cccc(C(=O)O)c1`, the IC50 [4] is reported as 9.52 µM (active) and the IC50 [5] is reported as 76.1 µM (active).
With `CNCc1ccccc1Sc1ccc(O)c(O)c1` the IC50 [6] was > 66 µM (inactive), the AC50 [7] was > 20 µM (inactive) and the AC50 [8] was > 52 µM (inactive).
